Reference: paper PMC4598832 (Scientific Reports, 2015)
Substitutions are numbered along the chain they refer to. Several values for one entry are separate records, joined by “and”; a condition that tells them apart may be missing. Identical values can stand only once. Entries after “also recorded” stand apart in the source; their conditions may differ. Like-named read-outs stand apart in the source and are kept apart here.

What was measured:
[1] = molecular target: T1, Olfr73 (mOR-EG) wt (Mus musculus, UniProt Q920P2); assay: cAMP reporter gene (SEAP) assay, Olfr73 wild type in Hana3A cells; format: cell-based
T1 construct: Rho (rhodopsin) tag; Myc; Flag; expressed in transfected cells; host or cells: Hana 3A cells
T1 sequence (Q920P2 1-313): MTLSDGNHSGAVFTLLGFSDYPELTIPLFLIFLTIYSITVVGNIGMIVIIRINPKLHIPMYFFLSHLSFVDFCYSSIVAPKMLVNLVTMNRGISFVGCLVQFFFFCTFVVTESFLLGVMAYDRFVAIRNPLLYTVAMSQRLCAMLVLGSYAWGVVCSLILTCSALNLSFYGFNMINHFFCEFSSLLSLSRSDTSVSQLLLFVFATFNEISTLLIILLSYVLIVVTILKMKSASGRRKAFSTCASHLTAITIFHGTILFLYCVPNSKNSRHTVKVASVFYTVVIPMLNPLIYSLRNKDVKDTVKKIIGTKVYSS

[2] = molecular target: T2, Olfr73 S113A (Mus musculus, UniProt Q920P2, S113A); assay: cAMP reporter gene (SEAP) assay, Olfr73 S113A in Hana3A cells; format: cell-based
T2 construct: Rho (rhodopsin) tag; expressed in transfected cells; host or cells: Hana 3A cells
T2 sequence (Q920P2 1-313 S113A): T1 sequence (Q920P2 1-313) with S113A

[3] = molecular target: T3, Olfr73 E208A (Mus musculus, UniProt Q920P2, E208A); assay: cAMP reporter gene (SEAP) assay, Olfr73 E208A in Hana3A cells; format: cell-based
T3 construct: Rho (rhodopsin) tag; Myc; expressed in transfected cells; host or cells: Hana 3A cells
T3 sequence (Q920P2 1-313 E208A): T1 sequence (Q920P2 1-313) with E208A

[4] = molecular target: T4, Olfr73 Y260F (Mus musculus, UniProt Q920P2, Y260F); assay: cAMP reporter gene (SEAP) assay, Olfr73 Y260F in Hana3A cells; format: cell-based
T4 construct: Rho (rhodopsin) tag; Myc; expressed in transfected cells; host or cells: Hana 3A cells
T4 sequence (Q920P2 1-313 Y260F): T1 sequence (Q920P2 1-313) with Y260F
Experimental: Confluent Hana 3A cells (35000 cells per well) cultured in a 96-well plate at 37 °C (Perkin-Elmer) were transfected with 0.15 μg of wild-type or mutated Olfr73 or Olfr74 encoding plasmid DNAs and 0.15 μg of the cAMP response element secreted alkaline phosphatase reporter plasmid (pCRE-SEAP) using Lipofectamine 2000 (Invitrogen). Cells were induced 8 h after transfection with cell medium containing the ligand, or cell medium alone. […] Experiments were carried out in triplicates and in parallel with a mock control (cells transfected with non-coding plasmid DNA).

[5] = molecular target: T5, Olfr73 S113A-E208A-Y260F (Mus musculus, UniProt Q920P2, E208A/S113A/Y260F); assay: cAMP reporter gene (SEAP) assay, Olfr73 triple mutant in Hana3A cells; format: cell-based
T5 construct: Rho (rhodopsin) tag; Myc; expressed in transfected cells; host or cells: Hana 3A cells
T5 sequence (Q920P2 1-313 S113A/E208A/Y260F): T1 sequence (Q920P2 1-313) with S113A, E208A, Y260F

[6] = molecular target: T6, Olfr74 (mOR-EV) wt (Mus musculus, UniProt Q920P1); assay: cAMP reporter gene (SEAP) assay, Olfr74 wild type in Hana3A cells; format: cell-based; conditions: for activation of Olfr74 wild type: result in words
T6 sequence (Q920P1 1-318): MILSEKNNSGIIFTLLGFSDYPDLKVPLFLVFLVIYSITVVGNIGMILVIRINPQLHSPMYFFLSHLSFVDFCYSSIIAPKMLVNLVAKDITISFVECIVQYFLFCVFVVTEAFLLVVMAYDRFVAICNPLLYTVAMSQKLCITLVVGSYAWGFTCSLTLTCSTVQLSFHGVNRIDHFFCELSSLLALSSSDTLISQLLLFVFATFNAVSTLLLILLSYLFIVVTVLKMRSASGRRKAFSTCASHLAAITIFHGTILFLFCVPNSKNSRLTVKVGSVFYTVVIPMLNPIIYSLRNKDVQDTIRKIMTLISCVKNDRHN

[7] = molecular target: Olfr74 A113S (Mus musculus, UniProt Q920P1, A113S); assay: cAMP reporter gene (SEAP) assay, Olfr74 A113S in Hana3A cells; format: cell-based
Sequence of Olfr74 A113S (Q920P1 entry or part of it A113S): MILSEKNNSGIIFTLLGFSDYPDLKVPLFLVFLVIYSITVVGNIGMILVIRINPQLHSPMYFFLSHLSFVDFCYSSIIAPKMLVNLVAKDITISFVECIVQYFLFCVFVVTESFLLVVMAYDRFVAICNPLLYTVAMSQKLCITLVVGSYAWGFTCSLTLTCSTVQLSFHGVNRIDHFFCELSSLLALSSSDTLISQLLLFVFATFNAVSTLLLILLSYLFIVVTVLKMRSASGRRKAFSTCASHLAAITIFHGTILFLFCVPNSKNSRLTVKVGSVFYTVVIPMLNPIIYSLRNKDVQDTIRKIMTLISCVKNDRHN
Experimental: (§1) Confluent Hana 3A cells (35000 cells per well) cultured in a 96-well plate at 37 °C (Perkin-Elmer) were transfected with 0.15 μg of wild-type or mutated Olfr73 or Olfr74 encoding plasmid DNAs and 0.15 μg of the cAMP response element secreted alkaline phosphatase reporter plasmid (pCRE-SEAP) using Lipofectamine 2000 (Invitrogen). Cells were induced 8 h after transfection with cell medium containing the ligand, or cell medium alone. For screening compound library, stock solutions of odorants (0.2–1 M) were prepared from pure compounds either in dimethyl sulfoxide (DMSO, Sigma-Aldrich, Buchs, CH) or ethanol and were stored at −20 °C. Mixtures of 5 to 10 odorants prepared form stock solutions, were diluted in serum-free DMEM and applied to the cells 8 hours after transfection (<100 μM, final individual odorant concentration). Experiments were carried out in triplicates and in parallel with a mock control (cells transfected with non-coding plasmid DNA). A relative SEAP activity [(n-1) times mock level] was calculated for each odorant mixture and those that induced an activity larger than 1 were considered for further analysis.
For odorant dose-dependent measurements of cAMP signaling specific ligands were added at increasing concentrations and measured in duplicates. Odorant-induced responses were measured using the SEAP activity reporter assay 16 h after stimulation. An aliquot of supernatant from each well was then mixed with an equal volume of 1 M diethanolamine bicarbonate (pH 9.8) containing 20 mM p-nitrophenyl phosphate and 1 mM MgCl2 (Sigma). The kinetics of hydrolysis of p-nitrophenol phosphate by alkaline phosphatase was determined by measuring the absorbance at 410 nm using a multiwell plate reader (SpectraMax 360, Molecular Devices). […] Dose response curves and EC50 values were then determined by fitting these points with the Hill equation using IGOR Pro software (WaveMetrics, Portland, OR, USA). Statistical significance of the differences in EC50 values was analyzed using a two-tailed Student’s t test. p values below 0.05 were considered as being significant.

[8] = molecular target: Olfr74 F260Y (Mus musculus, UniProt Q920P1, F260Y); assay: cAMP reporter gene (SEAP) assay, Olfr74 F260Y in Hana3A cells; format: cell-based
Sequence of Olfr74 F260Y (Q920P1 entry or part of it F260Y): as the sequence (Q920P1 entry or part of it A113S) above, with S113A, F260Y counted along it
Experimental: as §1
For odorant dose-dependent measurements of cAMP signaling specific ligands were added at increasing concentrations and measured in duplicates. Odorant-induced responses were measured using the SEAP activity reporter assay 16 h after stimulation. An aliquot of supernatant from each well was then mixed with an equal volume of 1 M diethanolamine bicarbonate (pH 9.8) containing 20 mM p-nitrophenyl phosphate and 1 mM MgCl2 (Sigma). The kinetics of hydrolysis of p-nitrophenol phosphate by alkaline phosphatase was determined by measuring the absorbance at 410 nm using a multiwell plate reader (SpectraMax 360, Molecular Devices). To remove SEAP activity background noise from the measurements, the mean value of mock control SEAP activity (Supplementary Figures 8 and 9) was subtracted from the mean value of OR-induced SEAP activity for each odorant concentration. Dose response curves and EC50 values were then determined by fitting these points with the Hill equation using IGOR Pro software (WaveMetrics, Portland, OR, USA). Statistical significance of the differences in EC50 values was analyzed using a two-tailed Student’s t test. p values below 0.05 were considered as being significant.

[9] = tested on: Olfr74 A113S-A208E-F260Y; assay: cAMP reporter gene (SEAP) assay, Olfr74 triple mutant in Hana3A cells; format: cell-based, mouse; conditions: result in words
Experimental: as §1, with “Mixtures of 5 to 10 odorants prepared form stock solutions, were diluted in serum-free DMEM and applied to the cells 8 hours after transfection (<100 μM, final individual odorant concentration). Experiments were carried out in triplicates and in parallel with a mock control (cells transfected with non-coding plasmid DNA).” left out
For odorant dose-dependent measurements of cAMP signaling specific ligands were added at increasing concentrations and measured in duplicates. Odorant-induced responses were measured using the SEAP activity reporter assay 16 h after stimulation. […] The kinetics of hydrolysis of p-nitrophenol phosphate by alkaline phosphatase was determined by measuring the absorbance at 410 nm using a multiwell plate reader (SpectraMax 360, Molecular Devices). […]

[10] = tested on: Olfr74; design: method as in PMID 12767924; conditions: HEK cells ref 31; cited from earlier work
[11] = EC50 Olfr73 wt, Hana3A cells, SEAP reporter, dash in Table 1 = no measurable response
[12] = read-out: EC50 Olfr73 S113A, dash in Table 1 = no measurable response
[13] = EC50 Olfr73 (E208A), Supplementary Table 1, rounded values derived from Fig. 2 and Supplementary Fig. 4, unit inferred
[14] = EC50 Olfr73 E208A, Hana3A cells, SEAP reporter
[15] = read-out: EC50 Olfr73 S113A-E208A-Y260F, dash in Table 1 = no measurable response
[16] = Hana3A cells, SEAP reporter, read-out: EC50 Olfr74 wt
[17] = rounded values derived from Fig. 2 and Supplementary Fig. 4, unit inferred, read-out: EC50 Olfr74 (WT), Supplementary Table 1
[18] = EC50 Olfr74 (F260Y), Supplementary Table 1, rounded values derived from Fig. 2 and Supplementary Fig. 4, unit inferred
[19] = EC50 Olfr74 F260Y, Hana3A cells, SEAP reporter
[20] = Hana3A cells, SEAP reporter, dash in Table 1 = no measurable response, read-out: EC50 Olfr73 wt
[21] = rounded values derived from Fig. 2 and Supplementary Fig. 4, unit inferred, read-out: EC50 Olfr73 (WT), Supplementary Table 1
[22] = dash in Table 1 = no measurable response, read-out: EC50 Olfr73 S113A
[23] = Hana3A cells, SEAP reporter, read-out: EC50 Olfr73 E208A
[24] = dash in Table 1 = no measurable response, read-out: EC50 Olfr73 S113A-E208A-Y260F
[25] = dash in Table 1 = no measurable response, read-out: EC50 Olfr73 Y260F

Structure (SMILES) | EC50 [1, 11] [µM] | EC50 [2, 12] [µM] | EC50 [3, 13] [µM] | EC50 [3, 14] [µM] | EC50 [5, 15] [µM] | EC50 [6, 16] | EC50 [6, 17] [µM] | EC50 [7] | EC50 [8, 18] [µM] | EC50 [8, 19] | EC50 [1, 20] | EC50 [1, 21] [µM] | EC50 [2, 22] [µM] | EC50 [3, 23] | EC50 [5, 24] [µM] | EC50 [4, 25] [µM] | activation of Olfr74 wild type ([6]; Hana3A cells, SEAP reporter) | other results
C=C(C)[C@@H]1CCC2=CC(=O)C[C@@H](C)[C@]2(C)C1 [Nootkatone, nootkatone] | 225 ± 76 | > 100 | > 100 | 277 ± 54 | > 100 | 86 µM and ~90 µM | 90 | 78 µM and ~80 µM | 40 | 35 µM and ~40 µM |  |  |  |  |  |  |  | EC50 ([1]; EC50 Olfr73 (WT), Supplementary Table 1, rounded values derived from Fig. 2 and Supplementary Fig. 4, unit inferred): > 100 µM; EC50 ([4]; read-out: EC50 Olfr73 Y260F, dash in Table 1 = no measurable response): > 100 µM
CC(C)=CC1CC(C)CCO1 (centres unmarked) [Rose Oxide, rose oxide] |  |  |  |  |  | 155 ± 21 µM | > 100 | > 100 µM | 40 | 42 µM and ~40 µM | 35 ± 20 µM | 30 | 23 ± 24 | ~10 µM and 10 µM | > 100 |  |  | activation of Olfr74 triple mutant (A113S, A208E, F260Y) [9]: no detectable activation
C/C=C/c1ccc(OC)c(OC)c1 [MIEG, methyl isoeugenol] |  | > 100 |  | 10 ± 5 | > 100 |  |  |  |  | 406 ± 23 µM | 131 ± 19 µM |  |  |  |  | > 100 | do not activate | 
COC(=O)c1ccc(O)c(OC)c1 [Methyl vanillate, methyl vanillate] |  |  |  |  |  |  |  |  |  | 447 ± 36 µM | 240 µM and 241 µM |  | > 100 | 347 ± 32 µM | > 100 | > 100 | do not activate | 
CCOc1cc(C=O)ccc1O [Ethyl vanillin, ethyl vanillin] | 35 ± 4 |  |  |  |  |  |  |  |  | 171 ± 35 µM |  |  | 202 ± 44 | 147 ± 11 µM | > 100 |  |  | activation of Olfr74 wild type ([6]; Hana3A cells, SEAP reporter, listed as ethyl vanillin): no detectable activation; activation of Olfr74 wild type ([6]; Hana3A cells, SEAP reporter, listed as ethyl-vanillin): no response was detected; also recorded: do not activate; cAMP signalling upon stimulation of Olfr74 [10]: no cAMP signalling
CCC=CCC1=C(C)CCC1=O [Jasmone, 3-methyl-2-(pent-2-enyl)-cyclopent-2-enone] |  |  | 70 | 66 ± 9 |  | 28 µM and ~30 µM | 30 | 71 µM and ~70 µM | 10 | 8 µM and ~10 µM |  | > 100 |  |  |  |  |  | activation of Olfr73 wild type ([1]; Hana3A cells, SEAP reporter, result in words): inactive; EC50 ([2]; EC50 Olfr73 S113A, dash in Table 1 = no measurable response): > 100 µM; EC50 ([5]; EC50 Olfr73 S113A-E208A-Y260F, dash in Table 1 = no measurable response): 83 ± 11 µM
